Legend:
[1] = tested on: RAW264.7 cells (TLR4 activation by LPS); test: TNF ELISA, LPS-stimulated RAW264.7 cells; assay type: cell-based, mouse; conditions: LPS 10 ng/ml; inhibitor even at 1 μM
Description: Figure EV3 Activity of select CSLP inhibitors in MDP and LPS‐stimulated RAW264.7 macrophages • A, B ELISA measurement of TNF release from RAW264.7 cells treated with MDP (10 μg/ml, 24 h) (A) or LPS (10 ng/ml) (B) and CSLP compounds as indicated. Values are expressed relative to the TNF release in cells treated with MDP without inhibitor (A) or as ng/ml TNF (B). Data information: Data represent the mean ± SEM of 2–3 independent experiments. Statistical significance in (B) is determined in relation to […] samples without inhibitor *P < 0.05, **P < 0.01, n.s., not significant. Two‐tailed unpaired Student's t‐test was used to determine statistical significance. […]
(§1) For HEKBlue assay, cells were seeded into clear 96 well plates at 7.5x10^3 cells/well and allowed to attach for 48 h. […] After 8-9 h, absorbance at 620 nm was measured using Victor3V plate reader (Perkin Elmer, Waltham, MA). Values of media-only wells were subtracted and %inhibition for each compound concentration relative to the DMSO/L18-MDP-treated controls were calculated.
Inhibition values + StDev were fitted by non-linear regression using Prism software (GraphPad Software, La Jolla, CA) to calculate IC50 values. […] After induction, 20 μl of media was mixed with 180 μl of QUANTI-Blue reagent (InvivoGen) and incubated at 37 °C for 3-4 h, followed by absorbance measurement at 620 nm. […]

THP1Blue cells, NOD2 = test: THP1Blue NF-κB-SEAP reporter assay, MDP (NOD2); assay type: cell-based; conditions: Homo sapiens; MDP 10 μg/ml; read-out: THP1-Blue NF-κB Inhibition IC50 (MDP)
Description: For HEKBlue assay, cells were seeded into clear 96‐well plates at 7.5 × 10^3 cells/well and allowed to attach for 48 h. On the day of the experiment, media was changed to 100 μl of HEKBlue detection media (InvivoGen). Inhibitors were diluted and added in 0.5 μl DMSO 15 min prior to the addition of 1 ng/ml L18‐MDP (InvivoGen). After 8–9 h, absorbance at 620 nm was measured using Victor3V plate reader (Perkin Elmer, Waltham, MA). Values of media‐only wells were subtracted and %inhibition for each compound concentration relative to the DMSO/L18‐MDP‐treated controls was calculated. […] After induction, 20 μl of media was mixed with 180 μl of QUANTI‐Blue reagent (InvivoGen) and incubated at 37°C for 3–4 h, followed by absorbance measurement at 620 nm. IC50 values were calculated as described for HEKBlue assay. […]
as §1
Inhibition values + StDev were fitted by non-linear regression using Prism software (GraphPad Software, La Jolla, CA) to calculate IC50 values. […] IC50 values were calculated as described for HEKBlue assay. […]

[2] = tested on: U2OS/NOD2, THP1, RAW264.7 and HEKBlue cells; test: CellTiter-Glo viability assay; assay type: cell-based; conditions: U2OS/NOD2, THP1, RAW264.7, HEKBlue; 24 h; up to 1 µM
Description: Cell viability was determined using CellTiter‐Glo assay (Promega). […] Kinase activities were determined using ADPGlo assay (Promega). • Structure of the active conformation of RIPK2 kinase domain in complex with AMP‐PNP (PDB ID: 5AR3). Figure depicts locations of the adenine and deep pockets. […] Key residues discussed in the text are shown as sticks (Lys/Glu Glu‐in bond—bottom left, catalytic Asp residues (Asp146/Asp164)—bottom right, R‐spine—right). P‐loop of CSLP18 structure is shown in yellow. Structured segment of activation segment (AS) observed in active conformation structures is shown in red. • Structure of RIPK2 kinase domain (gray ribbons) in complex with CSLP18 (orange) (PDB ID 6FU5). Sticks are shown for residues in the vicinity of the cavity surrounding the key inhibitor position R1. A 2Fo‐Fc electron density map contoured at 1 sigma is shown for the inhibitor and the residues lining the key region around inhibitor R^1 position. • Molecular docking model of RIPK2 kinase domain in complex with CSLP37 (yellow) based on RIPK2/CSLP18 structure (Fig 3D). […]
GST-BIR2-XIAP as indicated. Intensity quantification of SPOTs was performed using ImageJ software (Schneider et al., 2012). […]
for cell death) or vehicle for 24h. Viability was determined using the CellTiter-Glo® luminescent cell […]

| SMILES | TNF release following LPS [1] | IC50 (THP1Blue cells, NOD2) [nM] | toxicity in the cell lines used [2] |
| --- | --- | --- | --- |
| CCCS(=O)(=O)Nc1cc(-c2cc(-c3ccc(N4CCNCC4)cc3)cnc2N)cc(F)c1OC [CSLP37] | neither CSLP37 nor CSLP43 attenuated | 22.5 ± 2.1 | did not have measurable toxicity |
| CCCS(=O)(=O)Nc1cc(-c2cc(-c3ccc(N4CCNCC4)cc3)cnc2N)cc(OC)c1OC [CSLP43] | neither CSLP37 nor CSLP43 attenuated | 1.34 ± 0.08 | did not have measurable toxicity |
